In test [1] the test system is RAW264.7 murine macrophage cell line, PGE2 production. The test can be described thus: Inhibition of PGE2 synthesis in LPS-stimulated RAW264.7 macrophages (EIA). The class given is cell-based. The method, then:
(§1) The anti-inflammatory effect of a mixture of Cajanus in combination with glucosamine sulfate was determined in cellular assays by measuring the inhibition of the synthesis of nitric oxide and/or pro-inflammatory prostaglandins (PGE2). PGE2 plays a critical role in the inflammation process, while nitric oxide (NO) is a hallmark of inflammation in various chronic inflammatory diseases including various forms of arthritis, gastro-intestinal diseases and metabolic syndrome X (Creamer P et al 1997 Lancet 350:503-508; Vuolteenaho et al. 2007 Scand. J Rheumatology 36:247-258).
(§2) The effects on the inflammatory response were tested in cellular assays using a murine macrophage cell line, RAW264.7. […]
(§3) Concentrations of nitrite were determined by the Griess reaction using sodium nitrite as standard. Briefly, 50 ul of supernatant was mixed with Griess reagent 1 (25 uL) and Griess reagent 2 (25 uL), centrifuged and the optical density at 540 nm determined. PGE2 secreted into the cell culture medium was determined by EIA obtained from Cayman Chemicals (Ann Harbor, Wis., USA) and used according to the manufacturer's instructions. […] IC50 values for LPS-stimulated cells were calculated using a […] least-square fitting equation [y=A+((B−A)/(1+((C−x)̂D))] for best-fit curves (Excel fit software program).

For test [2], the system named is RAW264.7 murine macrophage cell line, nitric oxide production. The test can be described thus: Inhibition of nitric oxide production in LPS-stimulated RAW264.7 macrophages (Griess reaction); isobologram for combinations. The class given is cell-based. The method, then:
as §1, §2
as §3, with “program). […]” for “program).”
(In general: Nitrite, measured by Griess reagent, commonly stands in for NO production.)

The mark [3] stands for this setting: Mus musculus, single substances, LPS 1 ug/ml, 24 hours, RAW264.7.

Take `N[C@H]1C(O)O[C@H](CO)[C@@H](O)[C@@H]1O.O=S(=O)(O)O` (stereo partly shown) [Glucosamine sulfate]: in test [1] (LPS-stimulated RAW264.7), the “effect on PGE2 production (in words)” value is “no or only a marginal anti-inflammatory”. Also, the IC50 in test [1] (setting [3]) and in test [2] (setting [3]) was above 100 µg/mL in each case. Besides, the “effect on NO production (in words)” value in test [2] (LPS-stimulated RAW264.7) was “no or only a marginal anti-inflammatory”.

For the origin of these results see patent US20110300240A1, “CAJANUS EXTRACTS AND GLUCOSAMINE FOR INFLAMMATORY DISORDERS” (priority 2009, published 2011).
